Holding throughout (type): in vivo, male Sprague-Dawley rats
A short description of data set [1]: Effects of 7-day Ointment Rubbing on Organ Weights. Particulars: Table 7, 7-day rubbing, 100 mg ointment once daily; for Leukocyte count: normal animal 0.0. Here is the method:
(§1) Ointment to be tested was prepared usign white soft paraffin as the base and containing dexamethasone at 0.1% concentration.
Groups of 5 male Sprague-Dawley rats each weighing 150-170 g were used. Under ether anesthesia, the dorsum of animals were closely clipped, and test drug (100 mg) was carefully rubbed in the clipped dorsal area for 30 seconds. Rats were slipped on plastic cang to prevent them from licking the drug-applied area. After the drug rubbing once daily for 7 days, on the 8th day rats were anesthetized with ether. Blood samples were collected, and thymus, spleen, and adrenal were excised and measured their wet weights. Furthermore, leukocyte number was counted with the blood samples collected. Results were expressed as the per cent of change of body weight on the 8th day as compared with that on the 1st day of rubbing. Similarly, the per cent of change in weights of thymus, spleen and adrenal on the 8th day as compared with that of the control animlas were shown.

The next data set has as its system granuloma. The data set can be described thus: Inhibitory Effects on Granuloma Growth (Paper Disk Method). Particulars: Rattus norvegicus, topical, 168 h, ointment 0.1%, 50 mg once a day, 7 days. Here is the method: as §1
Groups of 5 male Sprague-Dawley rats each weighing 150-170 g were used. Under ether anesthesia, the dorsum of animals was closely clipped, and medianly incised. After each one pre-weighed paper disk (8-mm diameter, 1-mm thick, weighing about 30 mg; Toyo-Roshi filter paper) was inserted subcutaneously into both sides of the dorsal incision, the incision was sutured. In order to prevent bacterial infection, penicillin G potassium salt (2,000 units) per rat was intramascularly injected after the surgery. Base or ointment to be tested (50 mg each) was rubbed carefully into the skin over the paper disk inserted site, for 30 seconds once a day for the duration of 7 days. Rats were slipped plastic cangs on to prevent them from licking the drug applied sites. On the 8th day of the test, rats were sacrificed under ether anesthesia, and granulomas were carefully excised. Granulomas were dried at 40° C. for 24 h, and their dry weights were recorded.
Inhibitory effects of dexamethasone derivatives on the weight increase of granuloma of experimental animals as compared with those of control animals are shown as per cent of inhibition ov er the control in Table 1. Figures wihth asterisks in the table indicate signfiicant difference. The same will be applied to the following other tables.

For data set [2], the system named is croton oil-induced granuloma. The data set can be described thus: Croton Oil-induced Granuloma (granuloma pouch). Particulars: Rattus norvegicus, 168 h, 7 days; for inhibition in vivo at 0.01 mg: 0.01 mg/rat; for inhibition in vivo at 0.1 mg: 0.1 mg/rat; for inhibition in vivo at 1 mg: 1.0 mg/rat. How it is done:
Groups of 5 male Sprague-Dawley rats each weighing 160-180 g were used. Under ether anesthesia, the dorsum of animals was closely clipped, and air sac was formed by injecting air (20 ml) subcutaneously. Next day cotton seed oil containing 1% croton oil was injected into the air sac. Drugs to be tested were suspended in the cotton seed oil containing 1% croton oil, and administered. After 7 days, the blood was taken from the animal under ether anesthesia. Then, the granuloma pouch fluid (exudate) was collected, and the fluid volume was measured. The pouch wall formed around granuloma and thymus were also excised and weighed.

The mark [3] stands for this setting: read-out: Weight of granuloma, per cent of change of the controls, rat, paper disk.
[4] abbreviates: rat, paper disk, read-out: Weight of granuloma, per cent of change of the controls.
Setting [5] is: read-out: Effects on granuloma weight, per cent of inhibition over the control.
[6] abbreviates: read-out: Effects on pouch fluid (exudate) volume, per cent of inhibition over the control.

The record followed here is patent US5945404A, “21-Substituted steroid compound” (priority 1993, dated 1999).

Where two headings read alike, the source gives them in different places.

In the case of `C[C@@H]1C[C@H]2[C@@H]3CCC4=CC(=O)C=C[C@]4(C)[C@@]3(F)[C@@H](O)C[C@]2(C)[C@@]1(O)C(=O)CO[C@@H]1O[C@H](CO)[C@@H](O)[C@H](O)[C@H]1O` [Compound 5β, glucosyldexamethasone], in data set [1], the “Adrenal weight, per cent of change vs control animals” value (“Adrenal weight, per cent of change” for short) is -49.6 ± 3.2 per cent; the “Body weight, per cent of change on the 8th day vs 1st day” value (“Body weight, per cent of change” for short) is 0.7 ± 1.4 per cent; the “Spleen weight, per cent of change vs control animals” value (“Spleen weight, per cent of change” for short) is listed as -56.0 ± 1.6 per cent; the “Thymus weight, per cent of change vs control animals” value (“Thymus weight, per cent of change” below) is -85.7 ± 2.6 per cent. Besides, the Leukocyte count in data set [1] is on record as -46.6 ± 8.2. Further, the change in vivo at 0.1 %, 50 mg in the data set on granuloma (setting [3]) is -47.4 ± 2.9%.
In the case of `C[C@@H]1C[C@H]2[C@@H]3CCC4=CC(=O)C=C[C@]4(C)[C@@]3(F)[C@@H](O)C[C@]2(C)[C@@]1(O)C(=O)CO[C@H]1O[C@H](CO)[C@H](O)[C@H](O)[C@H]1O` [Compound 15α, galactosyldexamethasone], in data set [1], the “Adrenal weight, per cent of change” value was -48.3 ± 2.9 per cent; the “Body weight, per cent of change” value is recorded as 8.3 ± 1.0 per cent; the “Spleen weight, per cent of change” value is listed as -35.7 ± 2.3 per cent; the “Thymus weight, per cent of change” value is recorded as -82.2 ± 3.3 per cent. In data set [1], this compound gave a Leukocyte count of -22.6 ± 7.4. In addition, the change in vivo at 0.1 %, 50 mg in the data set on granuloma (setting [3]) was -39.5 ± 1.8%.
Turning to `C[C@@H]1C[C@H]2[C@@H]3CCC4=CC(=O)C=C[C@]4(C)[C@@]3(F)[C@@H](O)C[C@]2(C)[C@@]1(O)C(=O)CO[C@@H]1O[C@H](CO)[C@H](O)[C@H](O)[C@H]1O` [Compound 15β, galactosyldexamethasone], in data set [1], the “Adrenal weight, per cent of change” value is given as -47.1 ± 1.9 per cent; the “Body weight, per cent of change” value stood at 4.6 ± 0.9 per cent; the “Spleen weight, per cent of change” value is recorded as -43.2 ± 2.1 per cent; the “Thymus weight, per cent of change” value was -86.0 ± 1.4 per cent. Also, the Leukocyte count in data set [1] was -37.0 ± 6.9. The change in vivo at 0.1 %, 50 mg in the data set on granuloma (setting [3]) was -41 ± 2.6%.
`C[C@@H]1C[C@H]2[C@@H]3CCC4=CC(=O)C=C[C@]4(C)[C@@]3(F)[C@@H](O)C[C@]2(C)[C@@]1(O)C(=O)CO[C@H]1O[C@H](CO)[C@@H](O)[C@H](O)[C@@H]1O` [Compound 25α, mannosyldexamethasone]: in data set [1], the “Adrenal weight, per cent of change” value is -24.4 ± 3.4 per cent; the “Body weight, per cent of change” value worked out at 16.1 ± 1.7 per cent; the “Spleen weight, per cent of change” value is -18.2 ± 2.2 per cent; the “Thymus weight, per cent of change” value was -32.6 ± 7.4 per cent. Also, in data set [1], the Leukocyte count is reported as -0.7 ± 9.0. For the same compound, the change in vivo at 0.1 %, 50 mg in the data set on granuloma (setting [3]) was -18 ± 4.8%.
As to `CC(=O)N[C@H]1[C@H](OCC(=O)[C@@]2(O)[C@H](C)C[C@H]3[C@@H]4CCC5=CC(=O)C=C[C@]5(C)[C@@]4(F)[C@@H](O)C[C@@]32C)O[C@H](CO)[C@H](O)[C@@H]1O` [Compound 45β, N-acetylgalactosaminyldexamethasone], the change in vivo at 0.1 %, 50 mg in the data set with granuloma (setting [4]) was -28.1 ± 3.5%.
Same read-out and setting: then `COC(=O)[C@H]1O[C@@H]2OC(C)(OCC(=O)[C@@]3(O)[C@H](C)C[C@H]4[C@@H]5CCC6=CC(=O)C=C[C@]6(C)[C@@]5(F)[C@@H](O)C[C@@]43C)O[C@@H]2[C@@H](OC(C)=O)[C@@H]1OC(C)=O` (stereo partly drawn) [Compound 54'], with -44.8 ± 2.4%; and `COC(=O)[C@H]1O[C@@H](OCC(=O)[C@@]2(O)[C@H](C)C[C@H]3[C@@H]4CCC5=CC(=O)C=C[C@]5(C)[C@@]4(F)[C@@H](O)C[C@@]32C)[C@H](OC(C)=O)[C@@H](OC(C)=O)[C@@H]1OC(C)=O` [Compound 54β], with -35.1 ± 2.8%; and `C[C@@H]1C[C@H]2[C@@H]3CCC4=CC(=O)C=C[C@]4(C)[C@@]3(F)[C@@H](O)C[C@]2(C)[C@@]1(O)C(=O)CO[C@@H]1O[C@H](C(=O)O)[C@@H](O)[C@H](O)[C@H]1O` [Compound 55β, β-glucuronyldexamethasone], with -37.4 ± 7.1%.
The same measure, in the same setting: under `COC(=O)[C@H]1O[C@@H](OCC(=O)[C@@]2(O)[C@H](C)C[C@H]3[C@@H]4CCC5=CC(=O)C=C[C@]5(C)[C@@]4(F)[C@@H](O)C[C@@]32C)[C@H](OC(=O)c2ccc(C)cc2)[C@@H](OC(=O)c2ccc(C)cc2)[C@@H]1OC(=O)c1ccc(C)cc1` [Compound 59β] stands -7.7 ± 6.8%; under `COC(=O)[C@H]1O[C@@H]2OC(C)(OCC(=O)[C@@]3(O)[C@H](C)C[C@H]4[C@@H]5CCC6=CC(=O)C=C[C@]6(C)[C@@]5(F)[C@@H](O)C[C@@]43C)O[C@@H]2[C@@H](OC(C)=O)[C@H]1OC(C)=O` (stereo partly drawn) [Compound 64'], -41.3 ± 2.3%.
On the same count and under the same terms, then `COC(=O)[C@H]1O[C@@H](OCC(=O)[C@@]2(O)[C@H](C)C[C@H]3[C@@H]4CCC5=CC(=O)C=C[C@]5(C)[C@@]4(F)[C@@H](O)C[C@@]32C)[C@H](OC(C)=O)[C@@H](OC(C)=O)[C@H]1OC(C)=O` [Compound 64β], with -32.5 ± 0.5%; and `C[C@@H]1C[C@H]2[C@@H]3CCC4=CC(=O)C=C[C@]4(C)[C@@]3(F)[C@@H](O)C[C@]2(C)[C@@]1(O)C(=O)CO[C@@H]1O[C@H](C(=O)O)[C@H](O)[C@H](O)[C@H]1O` [Compound 65β, β-galacturonyldexamethasone], with -33 ± 3.3%.
Regarding `COC(=O)[C@H]1O[C@@H](OCC(=O)[C@@]2(O)[C@H](C)C[C@H]3[C@@H]4CCC5=CC(=O)C=C[C@]5(C)[C@@]4(F)[C@@H](O)C[C@@]32C)[C@H](OC(=O)c2ccc(C)cc2)[C@@H](OC(=O)c2ccc(C)cc2)[C@H]1OC(=O)c1ccc(C)cc1` [Compound 69β], the change in vivo at 0.1 %, 50 mg in the data set on granuloma (setting [4]) is 0.7 ± 2.4%.
As to `Cc1ccc(C(=O)OC[C@H]2O[C@@H](OCC(=O)[C@@]3(O)CC[C@H]4[C@@H]5C[C@H](F)C6=CC(=O)C=C[C@]6(C)[C@@]5(F)[C@@H](O)C[C@@]43C)[C@H](OC(=O)c3ccc(C)cc3)[C@@H](OC(=O)c3ccc(C)cc3)[C@@H]2OC(=O)c2ccc(C)cc2)cc1` [Compound 105β, glucosyldiflupredonate (p-toluoyl derivative)], the change in vivo at 0.1 %, 50 mg with granuloma (setting [4]) is -1.2 ± 5.7%. Further, in data set [2] (setting [5]), the inhibition in vivo at 0.01 mg is -5.9 ± 10.9%, the inhibition in vivo at 0.1 mg came to 22.1 ± 3.7% and the inhibition in vivo at 1 mg worked out at 53 ± 6.2%. In addition, in data set [2] (setting [6]), the inhibition in vivo at 0.01 mg was -8.1 ± 9.4%, the inhibition in vivo at 0.1 mg was found to be 24.8 ± 8.8% and the inhibition in vivo at 1 mg came out at 76.4 ± 4.3%.
As to `Cc1ccc(C(=O)OC[C@H]2O[C@@H](OCC(=O)[C@@]3(O)[C@@H](C)C[C@H]4[C@@H]5C[C@H](F)C6=CC(=O)C=C[C@]6(C)[C@@]5(F)[C@@H](O)C[C@@]43C)[C@H](OC(=O)c3ccc(C)cc3)[C@@H](OC(=O)c3ccc(C)cc3)[C@@H]2OC(=O)c2ccc(C)cc2)cc1` [Compound 107β, glucosyldiflorasone (p-toluoyl derivative)], the change in vivo at 0.1 %, 50 mg in the data set on granuloma (setting [4]) is -6.3 ± 5.5%. In data set [2] (setting [5]), the inhibition in vivo at 0.01 mg is -21.2 ± 19.2%, the inhibition in vivo at 0.1 mg is -23.3 ± 21.4% and the inhibition in vivo at 1 mg was 28.1 ± 12.5%. In addition, in data set [2] (setting [6]), the inhibition in vivo at 0.01 mg is -28.5 ± 18.8%, the inhibition in vivo at 0.1 mg is -30.9 ± 20.9% and the inhibition in vivo at 1 mg stood at 28.8 ± 15.2%.
On to `Cc1ccc(C(=O)OC[C@H]2O[C@@H](OCC(=O)[C@H]3[C@H](C)C[C@H]4[C@@H]5C[C@H](F)C6=CC(=O)C=C[C@]6(C)[C@@]5(F)[C@@H](O)C[C@@]43C)[C@H](OC(=O)c3ccc(C)cc3)[C@@H](OC(=O)c3ccc(C)cc3)[C@@H]2OC(=O)c2ccc(C)cc2)cc1` [Compound 109β, Glucosyldiflucortolone (p-toluoyl derivative)], for which, in the data set on granuloma (setting [4]), the change in vivo at 0.1 %, 50 mg was -0.2 ± 3.7%.
